Assay results as given in patent US6355799B1, “Substituted benzene compounds, process for their preparation, and herbicidal and defoliant compositions containing them” (ISK Americas Incorporated, priority 1997, dated 2002).

Legend:
Format in all cases: in vivo
[1] = tested on: lambsquarters (Chenopodium album, CHEAL); assay: Post-emerge test, greenhouse herbicide activity screening; details: phytotoxicity rating 0-100 (0 no damage, 100 complete death), 14 days after application
Procedure, shortened: (§1)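 Plants grown in 10 cm pots of sandy loam mix received acetone-dissolved compounds through a moving flat-fan nozzle. Doses ranged from 15 to 1000 g ai/ha. Pre-emerge pots were seeded one day earlier, post-emerge pots 8–21 days earlier. Fourteen days on, each pot was graded 0–100 for damage.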

[2] = tested on: sicklepod (Cassia obtusifolia, CASOB); assay: as above; details: phytotoxicity rating 0-100 (0 no damage, 100 complete death), 14 days after application
Procedure, shortened: as §1

[3] = tested on: ivyleaf morningglory (Ipomoea hederacea, IPOHE); assay: as above; details: phytotoxicity rating 0-100 (0 no damage, 100 complete death), 14 days after application
Procedure, shortened: as §1

[4] = tested on: johnsongrass (Sorghum halepense, SORHA); assay: as above; details: phytotoxicity rating 0-100 (0 no damage, 100 complete death), 14 days after application
Procedure, shortened: as §1

[5] = tested on: redroot pigweed (Amaranthus retroflexus, AMARE); assay: as above; details: phytotoxicity rating 0-100 (0 no damage, 100 complete death), 14 days after application
Procedure, shortened: as §1

[6] = tested on: barnyardgrass (Echinochloa crus-galli, ECHCG); assay: as above; details: phytotoxicity rating 0-100 (0 no damage, 100 complete death), 14 days after application
Procedure, shortened: as §1

[7] = tested on: velvetleaf (Abutilon theophrasti, ABUTH); assay: as above; details: phytotoxicity rating 0-100 (0 no damage, 100 complete death), 14 days after application
Procedure, shortened: as §1

[8] = tested on: large crabgrass (Digitaria sanguinalis, DIGSA); assay: as above; details: phytotoxicity rating 0-100 (0 no damage, 100 complete death), 14 days after application
Procedure, shortened: as §1

[9] = tested on: green foxtail (Setaria viridis, SETVI); assay: as above; details: phytotoxicity rating 0-100 (0 no damage, 100 complete death), 14 days after application
Procedure, shortened: as §1

[10] = tested on: redroot pigweed (Amaranthus retroflexus, AMARE); assay: Pre-emerge test, greenhouse herbicide activity screening; details: pre-emerge, rated 14 days after application, 0 = no damage, 100 = complete death
Procedure, shortened: (§2)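 Rating: 0–100 visual injury, 14 DAA. Application: acetone, 187 l/ha, 15–1000 g ai/ha, flat-fan track sprayer with nozzle 40–45 cm above soil or canopy. Post-emerge runs used 0.25% v/v surfactant on 2–3 leaf plants.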

[11] = tested on: upland rice (Oryza sp., var. Tebonnet, RICE); assay: Post-emerge test, crop safety; details: phytotoxicity rating 0-100 (0 no damage, 100 complete death), 14 days after application
Procedure, shortened: (§3)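 Visual ratings on a 0-100 scale (0 no damage, 100 all plants dead) were taken at 14 days after treatment. Rates of 15-1000 g ai/ha in acetone, 187 l/ha, were sprayed onto soil one day after planting (pre-emerge) or onto 2-3 leaf plants with 0.25% v/v surfactant (post-emerge).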

[12] = tested on: field corn (Zea mays L., var. Dekalb 535, CORN); assay: Post-emerge test, crop safety; details: phytotoxicity rating 0-100 (0 no damage, 100 complete death), 14 days after application
Procedure, shortened: as §3

[13] = tested on: upland rice (Oryza sp., var. Tebonnet, RICE); assay: Pre-emerge test, crop safety; details: pre-emerge, rated 14 days after application, 0 = no damage, 100 = complete death
Procedure, shortened: as §2

[14] = tested on: field corn (Zea mays L., var. Dekalb 535, CORN); assay: Pre-emerge test, crop safety; details: pre-emerge, rated 14 days after application, 0 = no damage, 100 = complete death
Procedure, shortened: as §2

[15] = tested on: lambsquarters (Chenopodium album, CHEAL); assay: Pre-emerge test, greenhouse herbicide activity screening; details: pre-emerge, rated 14 days after application, 0 = no damage, 100 = complete death
Procedure, shortened: as §3

[16] = tested on: sicklepod (Cassia obtusifolia, CASOB); assay: as above; details: pre-emerge, rated 14 days after application, 0 = no damage, 100 = complete death
Procedure, shortened: as §3

[17] = tested on: ivyleaf morningglory (Ipomoea hederacea, IPOHE); assay: as above; details: pre-emerge, rated 14 days after application, 0 = no damage, 100 = complete death
Procedure, shortened: as §3

[18] = tested on: johnsongrass (Sorghum halepense, SORHA); assay: as above; details: pre-emerge, rated 14 days after application, 0 = no damage, 100 = complete death
Procedure, shortened: as §3

[19] = tested on: barnyardgrass (Echinochloa crus-galli, ECHCG); assay: as above; details: pre-emerge, rated 14 days after application, 0 = no damage, 100 = complete death
Procedure, shortened: as §3

[20] = tested on: velvetleaf (Abutilon theophrasti, ABUTH); assay: as above; details: pre-emerge, rated 14 days after application, 0 = no damage, 100 = complete death
Procedure, shortened: as §3

[21] = tested on: large crabgrass (Digitaria sanguinalis, DIGSA); assay: as above; details: pre-emerge, rated 14 days after application, 0 = no damage, 100 = complete death
Procedure, shortened: as §3

[22] = tested on: green foxtail (Setaria viridis, SETVI); assay: as above; details: pre-emerge, rated 14 days after application, 0 = no damage, 100 = complete death
Procedure, shortened: as §3

CCOC(=O)COc1c(Cl)cc(F)c(-n2c(=O)cc(C(F)(F)F)n(C)c2=O)c1N [Compound 1-59]
40: Post-emerge Herbicidal Activity CASOB ([2]; 63 g ai/ha) | Post-emerge Herbicidal Activity DIGSA ([8]; 250 g ai/ha)
90: Pre-emerge crop damage CORN (phytotoxicity rating, scale 0-100) ([14]; 250 g ai/ha) | Pre-emerge Herbicidal Activity DIGSA (phytotoxicity rating, scale 0-100) ([21]; 250 g ai/ha) | Pre-emerge Herbicidal Activity SETVI (phytotoxicity rating, scale 0-100) ([22]; 250 g ai/ha)
45: Post-emerge Herbicidal Activity CORN (crop damage) ([12]; 63 g ai/ha)
80: Post-emerge Herbicidal Activity ECHCG ([6]; 250 g ai/ha) | Post-emerge Herbicidal Activity CORN (crop damage) ([12]; 250 g ai/ha) | Pre-emerge Herbicidal Activity CASOB (phytotoxicity rating, scale 0-100) ([16]; 250 g ai/ha)
10: Post-emerge Herbicidal Activity SORHA ([4]; 63 g ai/ha) | Post-emerge Herbicidal Activity SETVI ([9]; 63 g ai/ha)
30: Post-emerge Herbicidal Activity ECHCG ([6]; 63 g ai/ha) | Post-emerge Herbicidal Activity RICE (crop damage) ([11]; 63 g ai/ha) | Pre-emerge crop damage RICE (phytotoxicity rating, scale 0-100) ([13]; 63 g ai/ha) | Pre-emerge crop damage CORN (phytotoxicity rating, scale 0-100) ([14]; 63 g ai/ha) | Pre-emerge Herbicidal Activity CASOB (phytotoxicity rating, scale 0-100) ([16]; 63 g ai/ha) | Pre-emerge Herbicidal Activity SORHA (phytotoxicity rating, scale 0-100) ([18]; 63 g ai/ha) | Pre-emerge Herbicidal Activity DIGSA (phytotoxicity rating, scale 0-100) ([21]; 63 g ai/ha) | Pre-emerge Herbicidal Activity SETVI (phytotoxicity rating, scale 0-100) ([22]; 63 g ai/ha)
50: Post-emerge Herbicidal Activity SORHA ([4]; 250 g ai/ha)
95: Post-emerge Herbicidal Activity AMARE ([5]; 63 g ai/ha)
100: Post-emerge Herbicidal Activity CHEAL ([1]; 63 g ai/ha) | Post-emerge Herbicidal Activity CHEAL ([1]; 250 g ai/ha) | Post-emerge Herbicidal Activity CASOB ([2]; 250 g ai/ha) | Post-emerge Herbicidal Activity IPOHE ([3]; 63 g ai/ha) | Post-emerge Herbicidal Activity IPOHE ([3]; 250 g ai/ha) | Post-emerge Herbicidal Activity AMARE ([5]; 250 g ai/ha) | Post-emerge Herbicidal Activity ABUTH ([7]; 63 g ai/ha) | Post-emerge Herbicidal Activity ABUTH ([7]; 250 g ai/ha) | Pre-emerge Herbicidal Activity AMARE (phytotoxicity rating, scale 0-100) ([10]; 63 g ai/ha) | Pre-emerge Herbicidal Activity AMARE (phytotoxicity rating, scale 0-100) ([10]; 250 g ai/ha) | Pre-emerge Herbicidal Activity CHEAL (phytotoxicity rating, scale 0-100) ([15]; 63 g ai/ha) | Pre-emerge Herbicidal Activity CHEAL (phytotoxicity rating, scale 0-100) ([15]; 250 g ai/ha) | Pre-emerge Herbicidal Activity IPOHE (phytotoxicity rating, scale 0-100) ([17]; 63 g ai/ha) | Pre-emerge Herbicidal Activity IPOHE (phytotoxicity rating, scale 0-100) ([17]; 250 g ai/ha) | Pre-emerge Herbicidal Activity ABUTH (phytotoxicity rating, scale 0-100) ([20]; 63 g ai/ha) | Pre-emerge Herbicidal Activity ABUTH (phytotoxicity rating, scale 0-100) ([20]; 250 g ai/ha)
0: Post-emerge Herbicidal Activity DIGSA ([8]; 63 g ai/ha) | Pre-emerge Herbicidal Activity ECHCG (phytotoxicity rating, scale 0-100) ([19]; 63 g ai/ha)
60: Post-emerge Herbicidal Activity RICE (crop damage) ([11]; 250 g ai/ha)
85: Pre-emerge Herbicidal Activity SORHA (phytotoxicity rating, scale 0-100) ([18]; 250 g ai/ha)
70: Post-emerge Herbicidal Activity SETVI ([9]; 250 g ai/ha) | Pre-emerge crop damage RICE (phytotoxicity rating, scale 0-100) ([13]; 250 g ai/ha) | Pre-emerge Herbicidal Activity ECHCG (phytotoxicity rating, scale 0-100) ([19]; 250 g ai/ha)
